From patent US20140163026A1, “8-ETHYL-6-(ARYL)PYRIDO[2,3-D]PYRIMIDIN-7(8H)-ONES FOR THE TREATMENT OF NERVOUS SYSTEM DISORDERS AND CANCER” (Afraxis Holdings, Inc., priority 2011, published 2014)

Assays:
Assay type in all cases: biochemical
[1] = target: PAK1 (Homo sapiens, UniProt Q13153); experiment: In vitro PAK inhibition assay (SelectScreen, Ser/Thr 19 peptide)
Method in brief: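 Kinase reaction ran in 50 mM HEPES pH 7.5, 0.01% BRIJ-35, 10 mM MgCl2, 1 mM EGTA with Ser/Thr 19 peptide for 60 min at room temperature, followed by 60 min protease development. Fluorescence gave percent phosphorylation. Compounds were tested as 10-point, 3-fold titrations in 1% DMSO final.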

[2] = target: PAK4 (Homo sapiens, UniProt O96013); experiment: In vitro PAK inhibition assay (SelectScreen, Ser/Thr 20 peptide)
Method in brief: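 FRET-based Ser/Thr 20 peptide phosphorylation: 0.1-0.75 ng PAK4, 2 μM peptide in 50 mM HEPES pH 7.5, 10 mM MgCl2, 1 mM EGTA, 0.01% BRIJ-35, 1% DMSO; 60 min at room temperature, then 60 min protease development. 10-point 3-fold titrations; IC50 from sigmoidal fit.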

[3] = target: PAK2 (PAK65) (Homo sapiens, UniProt Q13177); experiment: as above
Method in brief: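 FRET-based peptide cleavage assay: 0.29-6 ng PAK2 and 2 μM Ser/Thr 20 peptide in 50 mM HEPES pH 7.5, 10 mM MgCl2, 1 mM EGTA, 0.01% BRIJ-35, 1% DMSO final. Kinase reaction 60 min at room temperature, then 60 min development; 10-point 3-fold titrations, percent phosphorylation from fluorescence.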

[4] = target: PAK3 (Homo sapiens, UniProt O75914); experiment: as above
Method in brief: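 PAK3 phosphorylation of Ser/Thr 20 peptide in 50 mM HEPES pH 7.5, 0.01% BRIJ-35, 10 mM MgCl2, 1 mM EGTA, 1% DMSO final; 60 min at room temperature, then 60 min development reaction with fluorescence read-out. 10-point 3-fold titrations; percent phosphorylation from 0% and 100% phosphopeptide controls.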

Sequence of PAK3 (O75914 whole entry): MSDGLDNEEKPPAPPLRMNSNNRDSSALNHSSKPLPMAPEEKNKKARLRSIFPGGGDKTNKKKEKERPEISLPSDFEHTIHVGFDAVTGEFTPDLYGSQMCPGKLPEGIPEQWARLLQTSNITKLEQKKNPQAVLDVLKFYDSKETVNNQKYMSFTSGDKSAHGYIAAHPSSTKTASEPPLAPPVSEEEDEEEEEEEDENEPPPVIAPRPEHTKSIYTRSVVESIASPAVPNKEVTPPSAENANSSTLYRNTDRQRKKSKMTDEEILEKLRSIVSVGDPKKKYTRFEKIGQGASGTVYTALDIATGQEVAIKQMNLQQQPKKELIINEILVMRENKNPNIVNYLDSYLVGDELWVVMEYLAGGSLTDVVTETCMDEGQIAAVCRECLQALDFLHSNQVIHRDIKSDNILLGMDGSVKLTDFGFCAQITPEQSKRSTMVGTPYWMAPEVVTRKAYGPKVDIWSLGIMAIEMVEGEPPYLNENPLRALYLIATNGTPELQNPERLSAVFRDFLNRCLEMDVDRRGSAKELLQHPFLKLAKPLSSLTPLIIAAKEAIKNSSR
Sequence of PAK4 (O96013 whole entry): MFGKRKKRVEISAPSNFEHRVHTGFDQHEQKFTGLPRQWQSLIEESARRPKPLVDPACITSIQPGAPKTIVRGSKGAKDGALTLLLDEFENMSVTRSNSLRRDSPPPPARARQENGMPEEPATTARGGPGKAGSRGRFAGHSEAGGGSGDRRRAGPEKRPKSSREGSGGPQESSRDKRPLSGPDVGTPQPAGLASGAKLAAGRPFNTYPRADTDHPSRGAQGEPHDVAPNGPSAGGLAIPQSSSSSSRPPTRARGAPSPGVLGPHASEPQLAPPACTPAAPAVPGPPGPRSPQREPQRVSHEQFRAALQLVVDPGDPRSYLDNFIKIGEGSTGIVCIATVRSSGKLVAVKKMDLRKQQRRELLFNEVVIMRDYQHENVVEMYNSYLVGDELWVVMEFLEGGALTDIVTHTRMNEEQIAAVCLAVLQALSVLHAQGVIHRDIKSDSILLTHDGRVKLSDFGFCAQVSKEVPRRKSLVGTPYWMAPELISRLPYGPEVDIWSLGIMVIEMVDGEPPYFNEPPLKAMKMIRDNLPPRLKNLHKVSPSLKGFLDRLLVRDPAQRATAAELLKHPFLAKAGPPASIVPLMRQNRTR
Sequence of PAK1 (Q13153 whole entry): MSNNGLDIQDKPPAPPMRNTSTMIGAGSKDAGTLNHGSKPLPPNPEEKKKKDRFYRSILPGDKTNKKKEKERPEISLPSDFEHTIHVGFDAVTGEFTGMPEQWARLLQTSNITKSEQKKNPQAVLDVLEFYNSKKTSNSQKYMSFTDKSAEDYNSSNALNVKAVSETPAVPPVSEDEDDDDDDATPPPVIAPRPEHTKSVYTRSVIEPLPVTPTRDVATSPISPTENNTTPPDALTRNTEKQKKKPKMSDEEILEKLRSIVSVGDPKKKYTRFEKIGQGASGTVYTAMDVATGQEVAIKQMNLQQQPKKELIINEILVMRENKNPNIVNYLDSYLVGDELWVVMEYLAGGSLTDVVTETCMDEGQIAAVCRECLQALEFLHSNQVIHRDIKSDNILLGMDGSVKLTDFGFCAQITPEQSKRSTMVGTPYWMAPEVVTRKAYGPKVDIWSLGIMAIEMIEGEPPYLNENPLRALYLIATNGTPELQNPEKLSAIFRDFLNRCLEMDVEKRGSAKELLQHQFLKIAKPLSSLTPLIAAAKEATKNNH
Sequence of PAK2 (PAK65) (Q13177 whole entry): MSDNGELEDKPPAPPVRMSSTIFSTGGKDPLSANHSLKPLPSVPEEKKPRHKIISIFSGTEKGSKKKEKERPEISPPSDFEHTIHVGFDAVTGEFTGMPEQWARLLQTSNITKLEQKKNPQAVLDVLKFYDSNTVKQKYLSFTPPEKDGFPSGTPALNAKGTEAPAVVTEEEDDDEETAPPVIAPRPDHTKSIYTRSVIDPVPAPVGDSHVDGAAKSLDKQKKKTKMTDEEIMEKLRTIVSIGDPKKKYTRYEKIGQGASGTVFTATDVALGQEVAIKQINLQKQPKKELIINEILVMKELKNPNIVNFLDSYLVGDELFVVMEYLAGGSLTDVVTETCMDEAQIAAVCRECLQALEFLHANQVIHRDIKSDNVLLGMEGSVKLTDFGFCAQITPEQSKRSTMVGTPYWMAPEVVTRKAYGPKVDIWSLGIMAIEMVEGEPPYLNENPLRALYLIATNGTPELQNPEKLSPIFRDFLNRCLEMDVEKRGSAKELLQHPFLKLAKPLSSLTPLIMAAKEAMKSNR

Row | Structure (SMILES) | IC50 [1] [µM] | IC50 [2] [µM] | IC50 [3] [µM] | IC50 [4] [µM]
1 | CCn1c(=O)c(-c2ccc(-c3cnn(C)c3)cc2)cc2cnc(Nc3ccc(N4CCN(C)CC4)cc3)nc21 | 0.05 to 0.5 | ≥ 5 | 0.05 to 0.5 | 0.5 to 5
2 | CCn1c(=O)c(-c2ccc(-c3cccc4[nH]ccc34)cc2Cl)cc2cnc(Nc3ccc(N4CCN(C)CC4)cc3)nc21 | < 0.05 | ≥ 5 | 0.05 to 0.5 | 0.05 to 0.5
3 | CCn1c(=O)c(-c2ccc(-c3cccc4ncccc34)cc2Cl)cc2cnc(Nc3ccc(N4CCN(C)CC4)cc3)nc21 | 0.05 to 0.5 | ≥ 5 | 0.05 to 0.5 | 0.05 to 0.5
4 | CCn1c(=O)c(-c2ccc(-c3noc(C)n3)cc2Cl)cc2cnc(Nc3ccc(CCN4CCOCC4)cc3)nc21 | 0.05 to 0.5 | ≥ 5 | 0.05 to 0.5 | 0.05 to 0.5
5 | CCn1c(=O)c(-c2ccc(-c3cccnc3F)cc2Cl)cc2cnc(Nc3ccc(CCN4CCCC4)cc3)nc21 | < 0.05 | 0.05 to 0.5 | < 0.05 | < 0.05
6 | CCn1c(=O)c(-c2ccc(-c3cccnc3C)cc2Cl)cc2cnc(Nc3ccc(CCN4CCOCC4)cc3)nc21 | 0.05 to 0.5 | ≥ 5 | 0.05 to 0.5 | 0.05 to 0.5
7 | CCn1c(=O)c(-c2ccc(-c3cccnc3C)cc2C)cc2cnc(Nc3ccc(C4CCN(C)CC4)cc3)nc21 | < 0.05 | ≥ 5 | 0.05 to 0.5 | 0.05 to 0.5
8 | CCn1c(=O)c(-c2ccc(-c3noc(C)n3)cc2C)cc2cnc(Nc3ccc(C4CCN(C)CC4)cc3)nc21 | < 0.05 | 0.5 to 5 | < 0.05 | < 0.05
9 | CCN(CC)CCc1ccc(Nc2ncc3cc(-c4ccc(-c5cccnc5C)cc4Cl)c(=O)n(CC)c3n2)cc1 | < 0.05 | ≥ 5 | < 0.05 | 0.05 to 0.5
10 | CCN(CC)CCc1ccc(Nc2ncc3cc(-c4ccc(-c5cccnc5F)cc4Cl)c(=O)n(CC)c3n2)cc1 | < 0.05 | 0.05 to 0.5 | < 0.05 | < 0.05
11 | CCN(CC)CCc1ccc(Nc2ncc3cc(-c4ccc(-c5noc(C)n5)cc4Cl)c(=O)n(CC)c3n2)cc1 | < 0.05 | 0.5 to 5 | < 0.05 | < 0.05
12 | CCn1c(=O)c(-c2ccc(-c3noc(C)n3)cc2F)cc2cnc(Nc3ccc(C4CCN(C)CC4)cc3)nc21 | < 0.05 | ≥ 5 | < 0.05 | 0.05 to 0.5
13 | CCn1c(=O)c(-c2ccc(-c3cnccn3)cc2F)cc2cnc(Nc3ccc(C4CCN(C)CC4)cc3)nc21 | < 0.05 | 0.05 to 0.5 | < 0.05 | < 0.05
14 | CN1CCC(c2ccc(Nc3ncc4cc(-c5cc(F)c(-c6cccnc6F)cc5Cl)c(=O)n(C)c4n3)cc2)CC1 | < 0.05 | ≥ 5 | < 0.05 | 0.05 to 0.5
15 | CCn1c(=O)c(-c2ccc(-c3ccccc3F)cc2Cl)cc2cnc(Nc3ccc(C4CCN(C)CC4)cc3)nc21 | < 0.05 | 0.5 to 5 | < 0.05 | < 0.05
16 | CCn1c(=O)c(-c2ccc(-c3cc(C(F)(F)F)ncn3)cc2Cl)cc2cnc(Nc3ccc(C4CCN(C)CC4)cc3)nc21 | 0.05 to 0.5 | ≥ 5 | 0.05 to 0.5 | 0.05 to 0.5
17 | CCn1c(=O)c(-c2ccc(-c3cc(NC4CC4)ncn3)cc2Cl)cc2cnc(Nc3ccc(C4CCN(C)CC4)cc3)nc21 | 0.05 to 0.5 | ≥ 5 | 0.05 to 0.5 | 0.05 to 0.5
18 | CCOC(=O)c1cncnc1-c1ccc(-c2cc3cnc(Nc4ccc(C5CCN(C)CC5)cc4)nc3n(CC)c2=O)c(Cl)c1 | 0.5 to 5 | ≥ 5 | 0.5 to 5 | 0.5 to 5
19 | CCn1c(=O)c(-c2ccc(-c3cc(N(C)C)ncn3)cc2Cl)cc2cnc(Nc3ccc(C4CCN(C)CC4)cc3)nc21 | < 0.05 | ≥ 5 | 0.05 to 0.5 | 0.05 to 0.5
20 | CCn1c(=O)c(-c2ccc(-c3ccnc(C(F)(F)F)n3)cc2Cl)cc2cnc(Nc3ccc(C4CCN(C)CC4)cc3)nc21 | < 0.05 | ≥ 5 | < 0.05 | 0.05 to 0.5
21 | CCn1c(=O)c(-c2ccc(-c3noc(C)n3)nc2)cc2cnc(Nc3ccc(C4CCN(C)CC4)cc3)nc21 | 0.5 to 5 | ≥ 5 | 0.5 to 5 | 0.5 to 5
22 | CCn1c(=O)c(-c2ccc(-c3cccnc3C)cn2)cc2cnc(Nc3ccc(C4CCN(C)CC4)cc3)nc21 | > 5 | ≥ 5 | > 5 | > 5
23 | Cc1nc(-c2cc(Cl)c(-c3cc4cnc(Nc5ccc(C6CCN(C)CC6)cc5)nc4n(C)c3=O)cc2F)no1 | < 0.05 | ≥ 5 | < 0.05 | < 0.05

The next lines start with the values.

Row | IC50 [1] [µM] | IC50 [2] [µM] | IC50 [3] [µM] | IC50 [4] [µM] | Structure (SMILES)
24 | < 0.05 | 0.5 to 5 | < 0.05 | < 0.05 | CCn1c(=O)c(-c2ccc(-c3cnc(C)s3)cc2Cl)cc2cnc(Nc3ccc(CCN4CCCC4)cc3)nc21
25 | < 0.05 | 0.5 to 5 | < 0.05 | 0.05 to 0.5 | Cc1ncc(-c2ccc(-c3cc4cnc(Nc5ccc(C6CCNCC6)cc5)nc4n(C)c3=O)c(Cl)c2)s1
26 | 0.05 to 0.5 | ≥ 5 | 0.05 to 0.5 | 0.05 to 0.5 | CCn1c(=O)c(-c2ccc(-c3cnc(C)s3)cc2Cl)cc2cnc(Nc3ccc(CCN4CCOCC4)cc3)nc21
27 | < 0.05 | 0.5 to 5 | < 0.05 | < 0.05 | CCN(CC)CCc1ccc(Nc2ncc3cc(-c4ccc(-c5cnc(C)s5)cc4Cl)c(=O)n(CC)c3n2)cc1
28 | 0.05 to 0.5 | ≥ 5 | 0.05 to 0.5 | 0.5 to 5 | Cc1ncccc1-c1cc(Cl)c(-c2cc3cnc(Nc4ccc(C5CCN(C)CC5)cc4)nc3n(C)c2=O)cc1F
29 | < 0.05 | ≥ 5 | 0.05 to 0.5 | 0.05 to 0.5 | CCn1c(=O)c(-c2ccc(-c3cc(C)ncn3)cc2Cl)cc2cnc(Nc3ccc(C4CCN(C)CC4)cc3)nc21
30 | < 0.05 | ≥ 5 | 0.05 to 0.5 | 0.05 to 0.5 | CCn1c(=O)c(-c2ccc(-c3cnc(C)o3)cc2Cl)cc2cnc(Nc3ccc(C4CCN(C)CC4)cc3)nc21
31 | < 0.05 | ≥ 5 | < 0.05 | 0.05 to 0.5 | CCn1c(=O)c(-c2ccc(-c3cc(C)nc(C)n3)cc2Cl)cc2cnc(Nc3ccc(C4CCN(C)CC4)cc3)nc21
32 | < 0.05 | 0.5 to 5 | < 0.05 | < 0.05 | CCn1c(=O)c(-c2ccc(-c3ncncc3F)cc2Cl)cc2cnc(Nc3ccc(C4CCN(C)CC4)cc3)nc21
33 | < 0.05 | ≥ 5 | < 0.05 | < 0.05 | Cc1ncc(-c2cc(Cl)c(-c3cc4cnc(Nc5ccc(C6CCN(C)CC6)cc5)nc4n(C)c3=O)cc2F)s1
34 | 0.5 to 5 | ≥ 5 | > 5 | > 5 | CCn1c(=O)c(-c2ccc(-c3cnc(C)s3)cn2)cc2cnc(Nc3ccc(C4CCN(C)CC4)cc3)nc21
35 | 0.5 to 5 | ≥ 5 | 0.5 to 5 | 0.5 to 5 | CCn1c(=O)c(-c2ccc(-c3cnc(C)s3)nc2)cc2cnc(Nc3ccc(C4CCN(C)CC4)cc3)nc21
36 | 0.05 to 0.5 | ≥ 5 | 0.5 to 5 | 0.5 to 5 | CN1CCC(c2ccc(Nc3ncc4cc(-c5cc(-c6cccnc6)ccc5Cl)c(=O)n(C)c4n3)cc2)CC1
